Measurements as given in US5399565A, “Pyrazolidinone CCK and gastrin antagonists and pharmaceutical formulations therof” (priority 1993, dated 1995).

Assays:
[1] = molecular target: T1, peripheral type CCK receptors in rat pancreas (Rattus norvegicus, UniProt P30551); test: Binding to peripheral type CCK receptors in rat pancreas (3H-L-364,718); conditions: for inhibition at 10 µM: read-out: Pancreas Percent Inhibition; for IC50: rat pancreas
T1 construct: Pancreas was obtained from male Sprague-Dawley rats; from tissue; host or cells: pancreas membranes of male Sprague-Dawley rats
T1 sequence (P30551 1-444): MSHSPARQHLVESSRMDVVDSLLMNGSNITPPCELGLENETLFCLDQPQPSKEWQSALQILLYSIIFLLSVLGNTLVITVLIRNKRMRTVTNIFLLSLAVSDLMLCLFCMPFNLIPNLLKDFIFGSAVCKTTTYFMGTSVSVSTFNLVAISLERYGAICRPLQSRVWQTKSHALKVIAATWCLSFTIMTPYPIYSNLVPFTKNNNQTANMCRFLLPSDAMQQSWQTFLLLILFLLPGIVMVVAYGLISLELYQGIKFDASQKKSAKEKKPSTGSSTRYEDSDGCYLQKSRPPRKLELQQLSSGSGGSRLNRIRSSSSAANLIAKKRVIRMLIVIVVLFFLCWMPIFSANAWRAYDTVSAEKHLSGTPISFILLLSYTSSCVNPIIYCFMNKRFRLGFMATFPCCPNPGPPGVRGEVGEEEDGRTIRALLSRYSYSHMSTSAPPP
Method: Binding to peripheral type CCK receptors in rat pancreas was done according to the method of Chang et al. (Mol. Pharmacol. 30: 212-217, 1986) using ^3 H-L364, 718. Pancreas was obtained from male Sprague-Dawley rats, 150-200 g, after decapitation, and dissected free from adipose and connective tissue. The tissue was homogenized in 30 volumes of 50 mM Tris buffer, pH 7.4 and centrifuged at 40,000 g for 10 min. The tissue pellet was washed by resuspension and centrifugation as described above. The final pellet was suspended in 500 volumes of assay buffer (50 mM Tris buffer, pH 7.4, 5 mM MgCl2, 0.14 mg/ml bacitracin, and 5 mM dithiothreitol) to give a protein concentration of 30-60 μg/200 μl . Reagent volumes for the assay were the same as those used for CCK binding to brain membranes. Tritium labeled L-364,718 (Dupont NEN, NET-971) was used as the ligand at a concentration of 0.4-0.6 nM. The samples were incubated 1 hour at room temperature and then filtered as described for the CCK-brain receptor. Scintillation cocktail was added to the filters which were counted for radioactivity using a Micromedic Taurus automatic liquid scintillation counter.
Compound samples were prepared and IC-50 values were determined as described for the CCK-brain experiments. Non-specific binding was that amount left bound to the filters after adding 100 nM L-364,718.

[2] = molecular target: T2, brain CCK receptor (Mus musculus, UniProt P56481); test: CCK receptor binding, mouse brain membranes (125I-CCK-8 sulfate); conditions: for inhibition at 1 µM / inhibition at 10 µM: read-out: Brain Percent Inhibition; for IC50: mouse brain membranes, read-out: Brain IC50
T2 construct: from tissue; host or cells: forebrain membranes of male CF-1 mice
T2 sequence (P56481 1-453): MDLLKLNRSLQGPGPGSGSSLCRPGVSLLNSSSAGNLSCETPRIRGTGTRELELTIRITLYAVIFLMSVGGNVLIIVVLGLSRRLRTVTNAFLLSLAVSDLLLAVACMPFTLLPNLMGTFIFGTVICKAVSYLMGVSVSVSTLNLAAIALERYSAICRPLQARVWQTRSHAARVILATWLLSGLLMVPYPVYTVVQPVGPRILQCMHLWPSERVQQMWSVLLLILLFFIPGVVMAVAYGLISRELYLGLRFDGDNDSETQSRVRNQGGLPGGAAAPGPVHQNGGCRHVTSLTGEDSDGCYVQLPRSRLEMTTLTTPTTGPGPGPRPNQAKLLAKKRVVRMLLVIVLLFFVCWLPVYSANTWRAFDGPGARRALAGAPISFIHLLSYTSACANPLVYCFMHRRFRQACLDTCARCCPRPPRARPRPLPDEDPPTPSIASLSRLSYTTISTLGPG
Method: Brain CCK receptor binding was performed using mouse brain membranes according to the method of Chang and Lotti (Proc. Natl. Acad. Sci. 83: 4923-4926, 1986). Male CF-1 mice, 23-25 g were sacrificed by cervical dislocation, the forebrain removed and placed in ice cold 50 mM Tris buffer, pH 7.4. The tissue was homogenized in 100 volumes of the Tris buffer with a Brinkman Polytron or Tekmar Tissumizer and then centrifuged at 40,000 g for 10 min. Pellets were resuspended in Tris buffer, centrifuged as above and then resuspended in 100 volumes of assay buffer, pH 6.5 (20 mM N-2-hydroxyethyl-piperazine-N'-2-ethane sulfonic acid (HEPES), 1 mM ethylene glycol his (2-aminoethyl ether-N,N,N',N'-tetraacetic acid) (EGTA), 5 mM MgCl2, 130 mM NaCl, and 0.25 mg/ml bacitracin). The binding assay consisted of 50 μL of compound (or buffer for total binding), 50 μL of ^125 I-CCK-8 sulfate (20 pM) (Amersham IM- 159), 200 μL of assay buffer and 200 μL of homogenate (80-120 μg protein). The samples were incubated at room temperature (25°) for 2 hours, and they were then filtered through GF/B glass fiber filters (soaked in wash buffer for 2 hours before use) using a 48 well Brandel cell harvester designed for receptor binding. The filters were washed twice with 3 ml of 50 mM Tris buffer, pH 7.4, containing 0.01% BSA and then counted for radioactivity in plastic tubes with a Micromedic 10/600 automatic gamma counter.
Compounds were dissolved in dimethyl sulfoxide (DMSO) at a concentration of 10 mM and then further diluted with assay buffer. The concentration of DMSO in the incubation was 0.1% or less and had no effect on the assay at that level. IC-50 values of displacement curves were determined using 7 concentrations of compound and were calculated using the ALLFIT computer program of DeLean, Munson and Rodbard (Am. J. Physiol. 235: E97-E102, 1978). Non-specific binding was determined as the displacement of the radioligand by 100 nM CCK-8 sulfate.

Structure (SMILES)	inhibition at 10 µM [1] [%]	inhibition at 10 µM [2] [%]	other results
O=C1NN(C(=O)Nc2cccc3ccccc23)[C@@H](c2ccccc2)[C@@H]1c1ccccc1 (relative stereo) [Example 90]	63	–	inhibition at 1 µM [2]: 45%
CCCCNC(=O)N1NC(=O)[C@H](c2ccccc2)[C@H]1c1ccccc1 (relative stereo) [Example 94]	–	50	–
O=C1NN(C(=S)Nc2ccc(Cl)c(C(F)(F)F)c2)[C@@H](c2ccccc2)[C@@H]1c1ccccc1 (single isomer, unassigned) [Example 143, (-)-trans-1-[(4-Chloro-3-trifluoromethylphenyl)-aminothiocarbonyl]-4,5-diphenyl-3-pyrazolidinone]	–	–	IC50 [1]: 810 nM
O=C1NN(C(=O)Nc2cc(C(F)(F)F)cc(C(F)(F)F)c2)[C@H](c2ccccc2)[C@H]1c1ccccc1 (relative stereo) [Example 58]	85	–	inhibition at 1 µM [2]: 10%
O=C1NN(C(=O)NC2CCc3ccccc3C2)[C@@H](c2ccccc2)[C@@H]1c1ccccc1 (relative stereo) [Example 4, 1-[(2-[1,2,3,4-Tetrahydronaphthyl])aminocarbonyl]-4,5-diphenyl-3-pyrazolidinone]	78	–	IC50 [2]: 390 nM
CCCCC1C(=O)NN(C(=O)Nc2ccc(Br)cc2)C1c1ccccc1 (centres unmarked) [Example 69]	12	–	IC50 [2]: 500 nM
O=C1NN(C(=O)Nc2ccc(F)cc2)[C@@H](c2ccccc2)[C@@H]1c1ccccc1 (relative stereo) [Example 17]	6	–	IC50 [2]: 520 nM
O=C1NN(C(=S)Nc2cccc(C(F)(F)F)c2)[C@H](c2ccccc2)[C@H]1c1ccccc1 (relative stereo) [Example 61]	78	56	–
O=C1NN(C(=O)NCc2cccc(Cl)c2)[C@@H](c2ccccc2)[C@@H]1c1ccccc1 (relative stereo) [Example 99]	86	–	IC50 [2]: 3300 nM
O=C1NN(C(=O)Nc2ccc(Br)cc2)[C@@H](c2ccccc2)[C@@H]1c1ccccc1 (single isomer, unassigned) [Example 140, (-)-trans-1-[(4-Bromophenyl)aminocarbonyl]-4,5-diphenyl-3-pyrazolidinone]	–	–	IC50 [2]: 370 nM
CN(Cc1ccccc1)C(=O)N1NC(=O)[C@@H](c2ccccc2)[C@@H]1c1ccccc1 (relative stereo) [Example 97]	–	42	–
O=C(Nc1cccc(C(F)(F)F)c1)N1N[C@@H](c2ccccc2)[C@H](c2ccccc2)C1=O (relative stereo) [Example 82]	–	23	–
CN1C(=O)[C@H](c2ccccc2)[C@@H](c2ccccc2)N1C(=O)Nc1ccc(C(F)(F)F)cc1 (relative stereo) [Example 67]	–	46	–
O=C1NN(c2nc3c(Cl)c(Cl)ccc3s2)[C@@H](c2ccccc2)[C@@H]1c1ccccc1 (relative stereo) [Example 86]	58	–	–
O=C1NN(C(=S)Nc2cnc3ccccc3c2)[C@@H](c2ccccc2)[C@@H]1c1ccccc1 (relative stereo) [Example 137]	–	–	IC50 [1]: 32 nM
COC1=NN(C(=O)Nc2ccc(C(F)(F)F)cc2)[C@@H](c2ccccc2)[C@@H]1c1ccccc1 (relative stereo) [Example 13, 1-[(4-Trifluoromethylphenyl)aminocarbonyl]-3-methoxy-4,5diphenyl-2-pyrazoline]	–	67	–
O=C1NN(C(=O)Nc2ccc3ccccc3c2)[C@@H](c2ccccc2)[C@@H]1c1ccccc1 (relative stereo) [Example 91]	94	–	–
O=C1NN(C(=S)Nc2ccc(Cl)c(C(F)(F)F)c2)[C@@H](c2ccccc2)[C@@H]1c1ccccc1 (single isomer, unassigned) [Example 142, (+)-trans-1-[(4-Chloro-3-trifluoromethylphenyl)-aminothiocarbonyl]-4,5-diphenyl-3-pyrazolidinone]	–	–	IC50 [1]: 17 nM
O=C1NN(C(=S)NCc2ccc(Cl)c(Cl)c2)[C@@H](c2ccccc2)[C@@H]1c1ccccc1 (relative stereo) [Example 138]	–	–	IC50 [1]: 69 nM
